Test results published in patent US10624893B2 (priority 2016, dated 2020).
pIC50: −log10 of the molar value. In brackets after ≈: the same amount, converted by molar mass. Where two headings read alike, the source gives them in different places.

What was measured:
[1] = system: Mycobacterium tuberculosis (H37Rv strain from ATCC cat #27294) expressing the green-fluorescent protein (GFP); assay: microbe, parasite or virus in culture; format: cell-based; details: 120 h
[2] = system: Mycobacterium tuberculosis growing inside murine Raw 264.7 cell line; assay: microbe, parasite or virus in culture; format: cell-based; details: H37RV, RAW264.7, 120 h
[3] = system: M. tuberculosis H37Rv strain; details: for reduction of microorganism burden in lungs with respect to untreated controls (Day 9): C57BL/6 mice
[4] = system: Mycobacterium bovis BCG str. Pasteur 1173P2; assay: microbe, parasite or virus in culture; format: cell-based
[5] = system: Mycobacterium tuberculosis growing inside human THP-1 monocytes; assay: Intracellular viability assay 1a (THP-1, luciferase, Steady-Glo); format: cell-based, Mycobacterium tuberculosis H37Rv; details: THP-1, 120 h
[6] = system: Mycobacterium tuberculosis growing inside human THP-1 monocytes; assay: Intracellular viability assay 1b (THP-1, luciferase, Bright-Glo); format: cell-based, Mycobacterium tuberculosis H37Rv; details: THP-1, 120 h
[7] = system: M. tuberculosis strain H37Rv; assay: Extracellular viability assay, glucose media (Method 2), resazurin MIC; format: cell-based; details: Mycobacterium tuberculosis
[8] = system: Mycobacterium tuberculosis Erdman strain; assay: Extracellular viability assay, Erdman strain, cholesterol media (Method 3); format: cell-based; details: 0.01% cholesterol medium, 7 days + 48 h resazurin, average over 5 measurements
M. africanum = assay: Extracellular MIC assay of Example 7, M. africanum; format: cell-based; details: Mycobacterium tuberculosis, cholesterol medium
M. bovis 0AF2122 = assay: microbe, parasite or virus in culture; format: cell-based; details: Mycobacterium tuberculosis variant bovis, 0AF2122, read-out: MIC 2
[9] = read-out: IC50 (uM) (cholesterol media)
[10] = read-out: IC50 (uM) (glucose media)

Row | SMILES | IC50 [1, 9] [µM] | IC50 [1, 10] [µM] | pIC50 [2] | reduction of microorganism burden in lungs with respect to untreated controls (Day 9) ([3]; 30 mg/kg once a day for 8 days) [log10 CFU] | inhibition at 2 µM ([4]; Mycobacterium tuberculosis variant bovis BCG, BCG) [%] | pIC50 [5] | pIC50 [6] | % Inhibition [4] [%] | MIC [7] [µM] | pIC50 [8] | MIC (M. africanum; read-out: MIC 1) [µM] | MIC (M. africanum; read-out: MIC 2) [µM] | MIC (M. bovis 0AF2122) [µM] | reduction of microorganism burden in lungs with respect to untreated controls (Day 9) ([3]; 200 mg/kg once a day for 8 days) [log10 CFU] | oral bioavailability (conclusion from murine in vivo data) ([3]; mouse)
1 | NNC(=O)c1ccncc1 [Isoniazid] | 0.2 | 0.5 | 7.15 |  |  |  |  |  |  |  |  |  |  |  | 
2 | COc1c(N2C[C@@H]3CCCN[C@@H]3C2)c(F)cc2c(=O)c(C(=O)O)cn(C3CC3)c12 [Moxifloxacin, reference compound] |  |  |  | 3.2 |  |  |  |  |  |  |  |  |  |  | 
3 | CO[C@H]1/C=C/O[C@@]2(C)Oc3c(C)c(O)c4c(O)c(c(/C=N/N5CCN(C)CC5)c(O)c4c3C2=O)NC(=O)/C(C)=C\C=C\[C@H](C)[C@H](O)[C@@H](C)[C@@H](O)[C@@H](C)[C@H](OC(C)=O)[C@@H]1C [Rifampicin, reference compound] | 0.04 | 0.02 | 6.70 |  | 100 | 8.00 | 8.70 |  |  |  |  |  |  |  | 
4 | Cc1cccc(OC2CCN(Cc3cc(=O)[nH]c(=O)[nH]3)CC2)c1C [Test Compound, 6-((4-(2,3-dimethylphenoxy)piperidin-1-yl)methyl)pyrimidine-2,4(1H,3H)-dione] | 0.28 | > 20 | 7.22 |  |  | 6.41 | 7.15 | 46.18 | > 12.5 | 6.06 | 1.2 (≈ 0.395 µg/mL) | 1.2 (≈ 0.395 µg/mL) | 0.78 (≈ 0.257 µg/mL) | 1.6 | orally bioavailable
